Source: US9567629B2, “Labeled enzyme compositions, methods and systems” (LIFE TECHNOLOGIES CORPORATION, priority 2009, dated 2017)

Experiments:
[1] = tested on: dye-labeled primer-template duplex with AF647-C6-dG6P; test: Stopped-flow measurements of tpol (nucleotide incorporation kinetics); assay type: biochemical; conditions: 330 nM polymerase, 100 nM template/primer duplex, 7 μM AF647-C6-dG6P, 2 mM MnCl2
Experimental: In this example, the t−1 and tpol values of a Phi-29 polymerase comprising the amino acid sequence of SEQ ID NO: 3 and a B103 polymerase comprising the amino acid sequence of SEQ ID NO: 34 (referred to as “mB103” in the table below) and including amino acid substitutions at various positions were measured using a stopped-flow procedure. The stopped-flow techniques for measuring tpol (1/kpol) followed the techniques described by MP Roettger (2008 Biochemistry 47:9718-9727; M. Bakhtina 2009 Biochemistry 48:3197-320).
The template sequence (SEQ ID NO: 44) further included an Alexa Fluor 546 dye moiety bonded to the 5′ position of the template.
The kinetics of nucleotide incorporation by each polymerase was measured in an Applied Photophysics SX20 stopped-flow spectrometer by monitoring changes in fluorescence from the dye-labeled primer-template duplex complexed to enzyme, following the mixing of the enzyme-DNA complex with dye-labeled nucleotides. […]
The primer and template were annealed to form a dye-labeled primer-template duplex using standard methods. […] The dye-labeled nucleotide AF647-C6-dG6P was then added to a final concentration of 7 μM, and the resulting fluorescence was monitored over time. […]

[2] = tested on: [enzyme•DNA•nucleotide] ternary complex with AF647-C6-dG6P; test: Stopped-flow measurements of t−1 (nucleotide dissociation from ternary complex); assay type: biochemical; conditions: 330 nM polymerase, 100 nM duplex, 7 μM AF647-C6-dG6P, chase 50 μM non-labeled dNTP, 2 mM MnCl2
Experimental: The stopped-flow techniques for measuring t−1 (1/k−1) followed the techniques described by M. Bakhtina (2009 Biochemistry 48:3197-3208).
The rate of the nucleotide dissociation (k1) from the ternary complex of [enzyme•DNA•nucleotide] was measured in an Applied Photophysics SX20 stopped-flow spectrometer by monitoring changes […] a duplex Alexa fluor 546 dye-labeled-DNA template following the mixing of the [enzyme•DNA•labeled nucleotide] ternary complex with 50 μM cognate non-labeled deoxynucleoside triphosphate in a buffer containing 50 mM Tris-HCl (pH 7.5), 50 mM NaCl, 4 mM DTT, 0.2% BSA, and 2 mM MnCl2.
The ternary complexes were prepared using: 330 nM polymerase, 100 nM template/primer duplex, and 7 μM terminal phosphate-labeled nucleotides (AF647-C6-dG6P).
The averaged stopped-flow fluorescence traces (>1.5 msec) were fitted with a single exponential equation (2) to extrapolate the rate of the nucleotide dissociation (k−1) from the [enzyme•DNA•nucleotide] ternary complex. Fluorescence=A1*e^−k−1*t+C (equation 2) where A1 represents the corresponding fluorescence amplitude, C is an offset constant, and k−1 and the observed rate constants for the fluorescence transition.

t−1 [2]: 27
Substance: Phi-29 (exo−): exonuclease-minus Phi-29 polymerase (Phi-29 polymerase comprising SEQ ID NO: 3) [reference compound]
tpol [1]: 11
